Experiments:
[1] = species and route not given; cited from earlier work
[2] = Mifepristone blood serum/plasma level after the same dose in different patients; format: in vivo, human; conditions: same dose of mifepristone
Procedure: In some embodiments, the assay can be performed as follows. Blood is collected from a patient in a vacutainer containing sodium heparin. The blood is centrifuged and the resulting plasma frozen at an appropriate temperature until assay. In some embodiments, the temperature is about −70° C. In other embodiments, other blood components can be collected and stored. Prior to analysis, the plasma is thawed and a fraction of the plasma is mixed with an internal standard in a solvent such as acetonitrile, to obtain a fixed concentration of the standard. In some embodiments, the internal standard can be mifepristone-d4. The concentration of the internal standard is selected in order to be greater than the expected concentration of mifepristone in the plasma. […]
The sample can then be analyzed by reverse-phase high pressure liquid chromatography (HPLC). […]
The reverse-phase HPLC column can be a phenyl column maintained at 50° C. […] Following elution, the mobile phase can be nebulized using heated nitrogen in a Z-spray source/interface and the ionized compounds detected using a tandem quadrupole mass spectrometer. Mifepristone (molecular weight of 430 g/mol) can be detected at m/z 372.30. The internal standard mifepristone-d4 can be detected at m/z 376.30. The ratio of the mifepristone peak height to the peak height for the internal standard can then be calculated. […]

[3] = test system: patients with major depressive disorder with psychotic features (PMD); assay: Phase III trials of CORLUX plus antidepressant vs. placebo: responders on BPRS Positive Symptom Subscale; format: in vivo, human
Text: This example provides a randomized, double-blind, placebo-controlled, parallel group study of the safety and efficacy of three dose levels of CORLUXTM (Mifepristone) plus an antidepressant vs. placebo plus an antidepressant in the treatment of psychotic symptoms in patients with major depressive disorder with psychotic features (PMD). The study was a Phase III trial performed using several investigators at several different sites. […] Patients eligible for randomization were male or nonpregnant female outpatients, and inpatients, if clinically required, with a diagnosis of Major Depressive Disorder with Psychotic Features (DSM-IV 296.24 or 296.34), and a BPRS Positive Symptom subscale score of at least 12, a BPRS total score of at least 38, and a HAMD-24 score of at least 20. CORLUX was used as the test drug at 300 (1×300 mg tablet), 600 (2×300 mg tablet), and 1200 mg (4×300 mg tablet) once a day by mouth for the initial 7 days. […] The reference drug was a placebo (1, 2, or 4 tablets matching CORLUX 300 mg tablets) once a day by mouth for the initial 7 days. […] An antidepressant selected from a prescribed list was started simultaneously with the study drug, and continued to the end of the trial. BPRS and HAM-D assessments were performed at Screen and on Days 0, 7, 14, 28, 42, and 56, and at early termination when it occurred. Safety visits occurred at Days 21 and 35. The patients who are seen as outpatients made daily visits to the clinic setting to receive study medications for the first 7 days. If clinically necessary, a patient was treated as an inpatient. In addition to the selected antidepressant, continuing benzodiazepines was allowed up to specified dose levels, but antipsychotics, mood stabilizers and additional antidepressants were not allowed during the entire study. If the patient was at imminent risk to him/herself and/or others and therefore could not be adequately treated within the study (e.g., required ECT, new or re-hospitalization for PMD, antipsychotics or mood stabilizers, or a second antidepressant), the patient underwent an early termination visit on the day that rescue therapy was started and completed final efficacy evaluations. If early termination occurred prior to day 35, the patient returned for a safety follow up visit at day 35. […] The secondary endpoints were: (1) the proportion of responders at days 7 and 28; and (2) the mean change from baseline to day 56 in the HAM-D-24 total score. […] This example provides an international, double-blind, placebo-controlled study of the efficacy and safety of CORLUXTM (Mifepristone) vs. placebo in the treatment of psychotic symptoms in patients with Psychotic Major Depression (PMD). The study was a Phase III trial performed using several investigators at several different international sites. […] The number of patients was 220 evaluable subjects. […] CORLUX was administered in a 600 mg dose once a day by mouth for the initial 7 days (administered as two 300 mg tablets). Reference drug, dose, dosage regimen, route of administration: Matching placebo was administered once a day by mouth for the initial 7 days. […] After the 7-day dosing period, patients were evaluated at Days 14, 21, 28, 35, 42 and 56. An antidepressant was administered simultaneously with study drug, and continued to the end of the trial (Day 56). BPRS and HAMD-24 assessments were performed at Screen and on Days 0, 7, 14, 28, 42 and 56, or at early termination. A safety visit occurred on Days 21 and 35, and at study termination on Day 56. Subjects treated on an outpatient basis made daily visits to the clinic to receive study medication for the first 7 days. Subjects were treated on an inpatient basis for as long as deemed clinically necessary by the investigator. In addition to the selected antidepressant, concomitant benzodiazepine treatment was allowed up to specified dose levels. Antipsychotics, mood stabilizers and a second antidepressant were prohibited during the entire study. […]

With `CC#C[C@]1(O)CC[C@H]2[C@@H]3CCC4=CC(=O)CCC4=C3[C@@H](c3ccc(N(C)C)cc3)C[C@@]21C` [Corlux, 17-beta-hydroxy-11-beta-(4-dimethyl-aminophenyl)-17-alpha-(1-propynyl)-estra-4,9-dien-3-one] as the compound, how does the LD50 dose [1] read?
Its LD50 dose is “about 1000 mg/kg”.

What about the “difference in blood serum levels from one patient to another” value [2] of the same compound?
Its value is ≤ 800% and up to 800%.

And the “proportion of patients with at least a 50% reduction from baseline in BPRS PSS scores at days 7 and 56” value ([3]; 1200 mg group (OC), all patients receiving the 1200 mg dose, FIG. 4)?
Its value is 47%.

What about the “proportion of patients with at least a 50% reduction from baseline in BPRS PSS scores at days 7 and 56” value ([3]; 1200 mg group (OC), plasma levels <1357 ng/mL, FIG. 5) of the same compound?
The value was 31%.

What about the “proportion of patients with at least a 50% reduction from baseline in BPRS PSS scores at days 7 and 56” value ([3]; 1200 mg group (OC), plasma levels <1661 ng/mL, FIG. 6) of the same compound?
The value was 39%.

And the “proportion of patients with at least a 50% reduction from baseline in BPRS PSS scores at days 7 and 56” value ([3]; 1200 mg group (OC), plasma levels >1357 ng/mL, FIG. 5)?
The value was 54%.

What about the “proportion of patients with at least a 50% reduction from baseline in BPRS PSS scores at days 7 and 56” value ([3]; 1200 mg group (OC), plasma levels >1661 ng/mL, FIG. 6) of the same compound?
Its value is 58%.

And the “proportion of patients with at least a 50% reduction from baseline in BPRS PSS scores at days 7 and 56” value ([3]; all studies (OC), all patients receiving Corlux, FIG. 1)?
The value was 35%.

And the “proportion of patients with at least a 50% reduction from baseline in BPRS PSS scores at days 7 and 56” value ([3]; all studies (OC), patients with plasma levels <1357 ng/mL, FIG. 2)?
The value was 27%.

And the “proportion of patients with at least a 50% reduction from baseline in BPRS PSS scores at days 7 and 56” value ([3]; all studies (OC), patients with plasma levels <1661 ng/mL, FIG. 3)?
Its value is 29%.

And the “proportion of patients with at least a 50% reduction from baseline in BPRS PSS scores at days 7 and 56” value ([3]; all studies (OC), patients with plasma levels >1357 ng/mL, FIG. 2)?
Its value is 40%.

And the “proportion of patients with at least a 50% reduction from baseline in BPRS PSS scores at days 7 and 56” value ([3]; all studies (OC), patients with plasma levels >1661 ng/mL, FIG. 3)?
Its value is 44%.

Source: patent publication US8921348B2, “Optimizing mifepristone levels in plasma serum of patients suffering from mental disorders treatable with glucocorticoid receptor antagonists” (Corcept Therapeutics, priority 2007, dated 2014)
